“Also recorded” adds a separate entry of the source.
How the values were obtained:
mAChRs = assay: [3H]DA release assay, superfused rat striatal slices
M3 mAChR = details: ref [36],[43]; cited from earlier work
human M3 mAChR = human M3 mAChR (Homo sapiens, UniProt P20309); details: [3H]NMS binding assay; ref [36],[43]; cited from earlier work
human M5 mAChR = target: T1, human M5 mAChR (Homo sapiens, UniProt P08912); assay: [3H]NMS binding, CHO cell membranes expressing human M5 mAChR
T1 sequence (P08912 1-532): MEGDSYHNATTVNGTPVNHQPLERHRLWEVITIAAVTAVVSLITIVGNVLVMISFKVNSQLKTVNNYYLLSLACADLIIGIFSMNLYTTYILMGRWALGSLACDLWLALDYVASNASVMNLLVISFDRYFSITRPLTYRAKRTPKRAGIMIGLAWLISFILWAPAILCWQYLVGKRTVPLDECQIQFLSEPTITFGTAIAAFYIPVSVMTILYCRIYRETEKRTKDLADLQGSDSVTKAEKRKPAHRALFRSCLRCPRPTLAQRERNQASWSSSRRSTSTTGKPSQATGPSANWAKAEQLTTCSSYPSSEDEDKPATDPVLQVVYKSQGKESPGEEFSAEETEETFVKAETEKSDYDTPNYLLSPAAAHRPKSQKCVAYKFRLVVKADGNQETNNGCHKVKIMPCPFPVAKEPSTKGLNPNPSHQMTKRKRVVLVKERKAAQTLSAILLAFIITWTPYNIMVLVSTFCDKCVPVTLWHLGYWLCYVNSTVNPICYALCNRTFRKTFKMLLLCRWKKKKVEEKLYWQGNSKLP

Sequence of human M3 mAChR (P20309 whole entry): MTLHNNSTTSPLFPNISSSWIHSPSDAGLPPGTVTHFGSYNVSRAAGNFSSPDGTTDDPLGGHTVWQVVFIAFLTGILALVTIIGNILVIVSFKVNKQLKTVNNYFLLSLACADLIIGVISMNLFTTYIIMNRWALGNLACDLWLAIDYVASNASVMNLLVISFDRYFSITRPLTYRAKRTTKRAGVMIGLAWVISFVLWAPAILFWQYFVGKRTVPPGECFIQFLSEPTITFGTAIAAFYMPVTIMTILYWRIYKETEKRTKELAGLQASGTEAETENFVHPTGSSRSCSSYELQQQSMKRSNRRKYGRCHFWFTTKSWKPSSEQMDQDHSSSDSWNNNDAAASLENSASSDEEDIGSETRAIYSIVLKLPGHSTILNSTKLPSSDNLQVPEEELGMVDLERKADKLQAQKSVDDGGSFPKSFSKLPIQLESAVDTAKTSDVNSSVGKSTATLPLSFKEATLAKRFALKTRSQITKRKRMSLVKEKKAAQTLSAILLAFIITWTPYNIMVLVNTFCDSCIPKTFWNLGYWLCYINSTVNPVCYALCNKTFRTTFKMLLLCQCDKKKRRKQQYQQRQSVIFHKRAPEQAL

SMILES: O=C1CCCN1CC#CCN1CCCC1 [oxotremorine]
- effect on [3H]DA overflow compared to control (mAChRs; oxotremorine 100 μM): increased [^3H]DA overflow

SMILES: Nc1cccc(CN2CCC(NC(=O)[C@](O)(c3ccccc3)[C@@H]3CCC(F)(F)C3)CC2)n1 [compound A, (2R)-N-[1-(6-aminopyridin-2-ylmethyl)piperidin-4-yl]-2-[(1R)-3,3-difluorocyclopentyl]-2-hydroxy-2-phenylacetamide]
- effect on carbachol-induced contraction of the isolated rat tracheal muscle (M3 mAChR): inhibition
- selectivity for M3 over M2 (human M3 mAChR): 193 fold

SMILES: CN1[C@@H]2C[C@H](OC(=O)[C@H](CO)c3ccccc3)C[C@H]1[C@@H]1O[C@@H]12 [scopolamine]
- effect on 3c-evoked [3H]DA overflow (mAChRs; scopolamine 10 μM, 3c 10 μM): inhibited

SMILES: O=C(OC1CN2CCC1CC2)N(CCc1ccc(F)cc1)c1ccccc1 (racemic) [Compound 3c, (±)-quinuclidin-3-yl-(4-fluorophenethyl)(phenyl)carbamate]
- effect on oxotremorine-evoked [3H]DA overflow (mAChRs; oxotremorine 100 μM, 3c 0.1, 1, 10 μM, significant at 10 μM): augmented oxotremorine-evoked [^3H]DA overflow; also recorded: augmented release evoked by oxotremorine; also recorded: augmented oxotremorine-evoked DA release
- fold higher affinity for M5 mAChRs compared to compound 1 (human M5 mAChR): 1200 fold

SMILES: O=C(NCC1CCNCC1)[C@H]1CCCN1C(=O)[C@@H]1C[C@@H](O)CN1C(=O)CC(c1ccc(F)cc1)(c1ccc(F)cc1)c1ccc(F)cc1 [compound 14a, (2R)-1-((2S,4R)-4-hydroxy-1-[3,3,3-tris(4-fluoro-phenyl)propanoyl]-pyrrolidine-2-yl)carbonyl-N-(4-piperidinyl-methyl)pyrrolidine-2-carboxamide]
- effect on carbachol-induced contraction of the isolated rat tracheal muscle (M3 mAChR): inhibition
- selectivity for M3 over M2 (human M3 mAChR): 1600 fold

From paper PMC7160324 (Bioorganic & medicinal chemistry letters, 2018)
